According to publication PMC5435687 (Scientific Reports, 2017):

Test system: SH-SY5Y cells transfected with AP180-C
Experiment: Uptake in cells overexpressing AP180-C
Format: cell-based, human
Conditions: SH-SY5Y 24 h post transfection; HF488-labelled Aβ 1 µM 1 h or AF647-Trf 5 µg/ml 5 min; low and high mRFP gates; N = 2, n = 2–4
Procedure: Flow cytometry was used to quantify cellular uptake. The samples were washed in serum free medium (1x for experiments including only Aβ and 3x for experiments with Trf) prior to incubation with Aβ peptides and/or other reagents in serum free medium supplemented with 30 mM HEPES and 2% B-27. For experiments including Trf B-27 was omitted, as outlined above. Prior to analysis, the cells were washed 1x (for experiments including only Aβ) or 3x (for experiments including Aβ and dextran 10 kDa or Trf) in serum free medium, detached by trypsin-EDTA for 10 min followed by addition of FBS-supplemented cell culture medium to inhibit further proteolytic degradation. All samples were kept on ice until they were analysed on a Guava EasyCyte 8HT (Millipore, Darmstadt, Germany) that automatically retrieves samples from a 96-well plate. In order to exclude effects due to difference in delay time we used mixed order of analysis, loading only a few samples at a time with the remaining samples kept on ice. The cell counting gate was determined using propidium iodide (0.5 µM, not washed away prior to analysis) and calcein-AM (10 nM, 15 min staining) to distinguish live and dead cells, and for each sample 5,000 cells from within the live gate were counted and analysed. HF488, AlexaFluor488, EGFP and calcein-AM were excited by a 488 nm laser and their fluorescence was detected through a 525/30 nm filter. Propidium iodide and mRFP were excited by the 488 nm laser but detected through a 692/46 nm filter. HF647 and AlexaFluor647 were excited with a 635 nm laser and detected through a 661/19 nm filter. Compensation was performed to adjust for bleed through in experiments including mRFP. Mean cellular uptake was estimated as the average fluorescence intensity of all cells gated within the live region and all individual experiments were performed with three technical replicates (n = 3) unless else is stated. The average fluorescence intensity was baseline corrected by subtracting the signal for unstained cells. […]

Row | Substance | uptake in AP180-C transfected cells compared to non-transfected cells
1 | Aβ(1–40): Synthetic 40 residue amyloid-β peptide conjugated to HiLyte Fluor HF488 (or HF647) at the N-terminus, from Anaspec | neither Aβ(1–40) nor Aβ(1–42) uptake was affected
2 | Aβ(1–42): Synthetic 42 residue amyloid-β peptide conjugated to HiLyte Fluor HF488 (or HF647) at the N-terminus, from Anaspec | small but statistically significant increase
